Assays:
Cytochrome P450 1A2 = target: T1, Cytochrome P450 1A2 (Homo sapiens, UniProt P05177); assay: Time dependent inhibition of CYP1A2 (unknown origin) upto 25 uM; type: ADME
T1 sequence (P05177 whole entry): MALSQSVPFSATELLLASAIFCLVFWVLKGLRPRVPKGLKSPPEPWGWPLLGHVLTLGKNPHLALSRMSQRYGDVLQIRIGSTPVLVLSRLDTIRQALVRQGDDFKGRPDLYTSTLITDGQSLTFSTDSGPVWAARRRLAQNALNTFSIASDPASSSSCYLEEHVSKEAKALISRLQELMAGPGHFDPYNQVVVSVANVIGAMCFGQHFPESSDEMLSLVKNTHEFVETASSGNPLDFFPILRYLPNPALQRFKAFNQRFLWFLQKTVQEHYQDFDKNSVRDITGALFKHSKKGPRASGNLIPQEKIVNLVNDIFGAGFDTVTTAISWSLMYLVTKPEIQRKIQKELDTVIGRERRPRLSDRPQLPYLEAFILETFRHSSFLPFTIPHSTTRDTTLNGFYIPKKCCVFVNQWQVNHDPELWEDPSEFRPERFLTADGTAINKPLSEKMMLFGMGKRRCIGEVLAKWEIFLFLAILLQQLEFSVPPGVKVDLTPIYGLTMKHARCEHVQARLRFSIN

Cytochrome P450 2C8 = target: T2, Cytochrome P450 2C8 (Homo sapiens, UniProt P10632); assay: Time dependent inhibition of CYP2C8 (unknown origin) upto 25 uM; type: ADME
T2 sequence (P10632 whole entry): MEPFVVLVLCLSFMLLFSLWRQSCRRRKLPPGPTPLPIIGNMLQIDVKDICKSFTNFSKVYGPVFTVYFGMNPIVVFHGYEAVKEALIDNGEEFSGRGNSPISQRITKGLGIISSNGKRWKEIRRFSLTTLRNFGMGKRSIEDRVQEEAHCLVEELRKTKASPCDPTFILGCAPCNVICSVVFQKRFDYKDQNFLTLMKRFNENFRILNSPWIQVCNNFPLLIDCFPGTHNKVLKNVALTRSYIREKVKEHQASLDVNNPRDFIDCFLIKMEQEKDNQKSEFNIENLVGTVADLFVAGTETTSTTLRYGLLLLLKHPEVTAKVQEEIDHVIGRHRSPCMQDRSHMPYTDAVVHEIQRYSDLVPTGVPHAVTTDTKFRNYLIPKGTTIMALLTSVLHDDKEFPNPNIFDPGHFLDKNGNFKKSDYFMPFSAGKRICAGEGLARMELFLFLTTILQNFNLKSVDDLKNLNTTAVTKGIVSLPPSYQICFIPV

- TDI (Cytochrome P450 1A2): Not Active
- TDI (Cytochrome P450 2C8): Not Active
Structure (SMILES): O=C(NC[C@H](c1ccc(Cl)cc1)N1CCOCC1)c1sc(-c2ncccn2)nc1C(F)(F)F

From ChEMBL document CHEMBL5055621, “Synthesis and Characterization of the Novel Rodent-Active and CNS-Penetrant P2X7 Receptor Antagonist Lu AF27139” (J Med Chem, 2021)
